According to article PMC4792576, “Formononetin, a novel FGFR2 inhibitor, potently inhibits angiogenesis and tumor growth in preclinical models” (Oncotarget, 2015):

Columns and labels:
FGFR1 = FGFR1 (Homo sapiens, UniProt P11362); test: radiometric kinase panel (Millipore), single concentration […]; format: biochemical; conditions: read-out: Inhibition rate at 1 μM (%)
FGFR2 = biological target: T1, FGFR2 (Homo sapiens, UniProt P21802); test: in vitro FGFR2 kinase assay (CycLex kit / Z'-lyte FRET), dose response; radiometric panel […] at […]; format: biochemical
T1 construct: kinase domains of FGFR2
T1 sequence (P21802 458-768 limits assumed): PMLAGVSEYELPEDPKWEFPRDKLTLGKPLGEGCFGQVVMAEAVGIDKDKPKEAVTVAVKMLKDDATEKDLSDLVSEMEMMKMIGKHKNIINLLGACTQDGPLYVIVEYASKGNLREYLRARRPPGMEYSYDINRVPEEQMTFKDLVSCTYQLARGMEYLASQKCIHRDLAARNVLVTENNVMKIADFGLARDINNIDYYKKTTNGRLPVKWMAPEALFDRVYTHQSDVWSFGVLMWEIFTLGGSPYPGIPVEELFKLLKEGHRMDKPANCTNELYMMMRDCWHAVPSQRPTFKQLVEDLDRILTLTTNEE

Sequence of FGFR1 (P11362 22-822): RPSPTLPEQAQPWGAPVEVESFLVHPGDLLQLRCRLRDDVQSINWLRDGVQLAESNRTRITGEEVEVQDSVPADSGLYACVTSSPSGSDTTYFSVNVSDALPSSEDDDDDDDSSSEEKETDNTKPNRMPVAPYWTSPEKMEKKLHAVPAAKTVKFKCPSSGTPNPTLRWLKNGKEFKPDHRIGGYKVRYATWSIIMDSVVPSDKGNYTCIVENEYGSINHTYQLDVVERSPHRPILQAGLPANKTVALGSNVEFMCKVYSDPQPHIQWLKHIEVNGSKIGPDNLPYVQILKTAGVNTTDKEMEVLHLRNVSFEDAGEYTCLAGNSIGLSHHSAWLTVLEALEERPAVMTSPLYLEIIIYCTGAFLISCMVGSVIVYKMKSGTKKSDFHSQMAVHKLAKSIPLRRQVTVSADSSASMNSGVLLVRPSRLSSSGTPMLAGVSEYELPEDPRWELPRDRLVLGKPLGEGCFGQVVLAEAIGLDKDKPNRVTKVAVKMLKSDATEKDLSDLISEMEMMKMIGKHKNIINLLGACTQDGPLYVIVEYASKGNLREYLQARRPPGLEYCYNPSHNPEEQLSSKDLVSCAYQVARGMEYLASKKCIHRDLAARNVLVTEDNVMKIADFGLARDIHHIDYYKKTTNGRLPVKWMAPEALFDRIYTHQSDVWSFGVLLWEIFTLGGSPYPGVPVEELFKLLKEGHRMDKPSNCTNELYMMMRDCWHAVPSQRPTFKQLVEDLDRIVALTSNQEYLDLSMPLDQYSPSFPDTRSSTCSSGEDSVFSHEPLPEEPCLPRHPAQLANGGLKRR

Question: For COc1ccc(-c2coc3cc(O)ccc3c2=O)cc1 [formononetin], which inhibition at 1 µM (FGFR1) is on record?
Answer: 57 ± 4%

Question: What about the IC50 (FGFR2) of the same compound?
Answer: ~4.31 µM
